Test results from ChEMBL document CHEMBL5390202, “Cannabinoid Receptor Type II Ligands from Sandalwood Oil and Synthetic α-Santalol Derivatives” (J Nat Prod, 2023).
The source made the active and inactive calls. No cut-off for these calls is given here.

Tests used:
[1] = target: T1, Cannabinoid receptor 2 (Homo sapiens, UniProt P34972); assay: Displacement of [3H]-CP55940 from human CB2 receptor expressed in CHO cell membranes assessed as inhibition constant incubated for 1 hr by TopCount liquid scintillation counting analysis; design: species or system Membrane
[2] = target: 5-hydroxytryptamine receptor 2A (Rattus norvegicus, UniProt P14842); assay: Displacement of [3H]-ketanserin from rat brain cortex 5-HT2A receptor incubated for 60 mins by liquid scintillation counting analysis; assay type: tissue-based
[3] = target: T1, Cannabinoid receptor 2; assay: Agonist activity at CB2 receptor (unknown origin) expressed in human SH-SY5Y cells assessed as increase in intracellular calcium flux at 3.2 to 10 uM incubated for 3 mins in presence of 60 nM AM-630 by Fluo-4AM dye based fluorescence analysis; assay type: functional, cell-based; conditions: dose 3.2-10 µM
[4] = target: Cannabinoid receptor 1 (Homo sapiens) (UniProt P21554); assay: Displacement of [3H]-CP55940 from human CB1 receptor expressed in CHO cell membranes at 10 uM incubated for 1 hr by TopCount liquid scintillation counting analysis relative to control; conditions: Membrane
[5] = target: T1, Cannabinoid receptor 2; assay: Displacement of [3H]-CP55940 from human CB2 receptor expressed in CHO cell membranes at 10 uM incubated for 1 hr by TopCount liquid scintillation counting analysis relative to control; conditions: Membrane
[6] = target: T1, Cannabinoid receptor 2; assay: Agonist activity at CB2 receptor (unknown origin) expressed in human SH-SY5Y cells assessed as increase in intracellular calcium flux at 3.2 to 10 uM incubated for 3 mins in presence of 10 uM raloxifene by Fluo-4AM dye based fluorescence analysis; assay type: functional, cell-based; conditions: dose 3.2-10 µM
[7] = target: D(2) dopamine receptor (Rattus norvegicus, UniProt P61169); assay: Displacement of [3H]-raclopride from rat brain striatum dopamine D2 receptor incubated for 60 mins by liquid scintillation counting analysis; assay type: tissue-based
[8] = target: T1, Cannabinoid receptor 2; assay: Agonist activity at CB2 receptor (unknown origin) expressed in human SH-SY5Y cells assessed as increase in intracellular calcium flux at 3.2 to 10 uM incubated for 3 mins by Fluo-4AM dye based fluorescence analysis; assay type: functional, cell-based; conditions: filed as agonist, dose 3.2-10 µM
[9] = target: T1, Cannabinoid receptor 2; assay: Potency index, ratio of alpha-santalol Ki to test compound Ki for displacement of [3H]-CP55940 from human CB2 receptor expressed in CHO cell membranes incubated for 1 hr by TopCount liquid scintillation counting analysis; conditions: Membrane, filed as agonist
[10] = target: T1, Cannabinoid receptor 2; assay: Agonist activity at CB2 receptor (unknown origin) expressed in human SH-SY5Y cells assessed as increase in intracellular calcium flux at 0.032 to 0.1 uM incubated for 3 mins in presence of 10 uM raloxifene by Fluo-4AM dye based fluorescence analysis; assay type: functional, cell-based; conditions: dose 0.032-0.1 µM
[11] = target: T1, Cannabinoid receptor 2; assay: Agonist activity at CB2 receptor (unknown origin) expressed in human SH-SY5Y cells assessed as increase in intracellular calcium flux at 0.032 to 0.1 uM incubated for 3 mins in presence of 60 nM AM-630 by Fluo-4AM dye based fluorescence analysis; assay type: functional, cell-based; conditions: dose 0.032-0.1 µM
[12] = target: T1, Cannabinoid receptor 2; assay: Agonist activity at CB2 receptor (unknown origin) expressed in human SH-SY5Y cells assessed as increase in intracellular calcium flux at 0.032 to 0.1 uM incubated for 3 mins by Fluo-4AM dye based fluorescence analysis; assay type: functional, cell-based; conditions: filed as agonist, dose 0.032-0.1 µM

T1 sequence (P34972 whole entry): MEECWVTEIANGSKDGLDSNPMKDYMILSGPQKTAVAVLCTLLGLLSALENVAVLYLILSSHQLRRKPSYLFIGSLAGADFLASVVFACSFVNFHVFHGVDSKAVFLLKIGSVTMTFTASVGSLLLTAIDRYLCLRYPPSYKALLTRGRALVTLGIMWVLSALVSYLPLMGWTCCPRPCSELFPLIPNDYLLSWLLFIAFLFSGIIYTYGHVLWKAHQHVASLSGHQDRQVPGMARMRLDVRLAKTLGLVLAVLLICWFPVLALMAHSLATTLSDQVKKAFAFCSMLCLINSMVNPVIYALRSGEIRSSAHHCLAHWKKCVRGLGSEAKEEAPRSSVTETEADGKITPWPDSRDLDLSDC
Cannabinoid receptor 1 (Homo sapiens), sequence (P21554 whole entry): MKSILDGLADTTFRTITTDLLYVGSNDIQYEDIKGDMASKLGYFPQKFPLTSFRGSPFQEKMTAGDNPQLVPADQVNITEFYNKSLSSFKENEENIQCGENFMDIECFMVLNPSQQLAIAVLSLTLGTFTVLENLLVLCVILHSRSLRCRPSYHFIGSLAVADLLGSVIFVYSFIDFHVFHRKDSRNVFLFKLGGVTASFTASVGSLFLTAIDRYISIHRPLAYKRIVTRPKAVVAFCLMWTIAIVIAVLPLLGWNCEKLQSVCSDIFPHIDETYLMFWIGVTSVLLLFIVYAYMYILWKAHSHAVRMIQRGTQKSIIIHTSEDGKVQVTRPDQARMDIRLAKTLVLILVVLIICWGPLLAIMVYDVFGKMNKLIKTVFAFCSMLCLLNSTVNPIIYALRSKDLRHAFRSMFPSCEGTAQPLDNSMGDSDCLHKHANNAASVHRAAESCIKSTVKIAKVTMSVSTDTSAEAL
5-hydroxytryptamine receptor 2A, sequence (P14842 whole entry): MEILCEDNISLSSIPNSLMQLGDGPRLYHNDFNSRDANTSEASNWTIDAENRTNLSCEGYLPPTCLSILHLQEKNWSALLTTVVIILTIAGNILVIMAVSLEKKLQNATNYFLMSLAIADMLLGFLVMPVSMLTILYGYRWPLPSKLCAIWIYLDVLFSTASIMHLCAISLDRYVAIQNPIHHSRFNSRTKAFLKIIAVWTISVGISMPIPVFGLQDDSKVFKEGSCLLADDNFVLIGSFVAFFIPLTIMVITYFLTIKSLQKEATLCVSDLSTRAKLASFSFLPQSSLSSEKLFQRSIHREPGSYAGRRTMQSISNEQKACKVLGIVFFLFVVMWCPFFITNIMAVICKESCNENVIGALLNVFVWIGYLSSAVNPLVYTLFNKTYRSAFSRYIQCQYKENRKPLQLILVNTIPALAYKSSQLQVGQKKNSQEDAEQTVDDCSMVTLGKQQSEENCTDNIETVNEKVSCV
D(2) dopamine receptor, sequence (P61169 whole entry): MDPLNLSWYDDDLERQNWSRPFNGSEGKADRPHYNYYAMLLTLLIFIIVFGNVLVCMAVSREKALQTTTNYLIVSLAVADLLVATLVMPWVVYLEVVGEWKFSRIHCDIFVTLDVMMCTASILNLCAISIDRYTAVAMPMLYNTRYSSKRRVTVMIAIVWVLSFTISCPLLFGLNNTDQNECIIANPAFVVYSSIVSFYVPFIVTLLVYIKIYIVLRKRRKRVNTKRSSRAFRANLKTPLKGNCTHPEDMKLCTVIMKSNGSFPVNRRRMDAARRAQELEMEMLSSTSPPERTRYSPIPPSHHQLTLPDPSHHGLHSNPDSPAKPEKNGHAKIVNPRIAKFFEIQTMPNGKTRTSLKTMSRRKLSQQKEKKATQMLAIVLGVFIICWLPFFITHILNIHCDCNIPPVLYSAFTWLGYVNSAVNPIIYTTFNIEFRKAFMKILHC

In the case of `C/C(=C/CC[C@]1(C)[C@H]2CC3[C@H](C2)[C@]31C)CO`, the Ki [1] is reported as 10.5 µM, the IC50 [2] is reported as 180 µM and the Activity [3] is reported as “inactive”. For the same compound, the Activity [4] was under 16%, the Activity ([5]; filed as agonist) was 62.5% and the Activity [6] was “inactive”. The IC50 [7] was 75 µM and the Activity [8] was “Active”.
`C/C(=C/CC[C@]1(C)[C@@H]2C[C@@H]3[C@H](C2)[C@@]31C)CNNC(=O)c1ccc(N(C)C)cc1` gave an Activity [5] of 26.5%.
`C/C(=C/CC[C@]1(C)[C@H]2C[C@@H]3[C@@H](C2)[C@]31C)CN1CCN(C)CC1` was tested, and the Ki [1] was 0.99 µM, the Ratio Ki [9] was 10.6 and the Activity [10] was “inactive”. The Activity [11] was “inactive”, the Activity [4] was under 20% and the Activity ([5]; filed as agonist) was 82.1%. The Activity [12] was “Active”.
For `C/C(=C/CC[C@]1(C)[C@@H]2C[C@@H]3[C@H](C2)[C@@]31C)CN1CCCC1`, the Activity [5] was 8.03%.
For `C/C(=C/CC[C@]1(C)[C@@H]2C[C@@H]3[C@H](C2)[C@@]31C)CN(C)C`, the Activity [5] was 2.94%.
In the case of `C/C(=C/CC[C@]1(C)[C@@H]2C[C@@H]3[C@H](C2)[C@@]31C)COC(=O)CCC(=O)O`, the Activity [5] is reported as 5.82%.
`C/C(=C/CC[C@]1(C)[C@@H]2C[C@@H]3[C@H](C2)[C@@]31C)CN1CCCCC1` was tested, and the Activity [5] was 16.8%.
Work on `COc1ccc(C(=O)c2c(C)n(CCN3CCOCC3)c3cc(I)ccc23)cc1` yielded an Activity ([5]; filed as antagonist) of 93%.
Compound `C/C(=C/CC[C@]1(C)[C@@H]2C[C@@H]3[C@H](C2)[C@@]31C)CN1CCOCC1` has an Activity [5] of 21.3%.
`C/C(=C/CC[C@]1(C)[C@@H]2C[C@@H]3[C@H](C2)[C@@]31C)CN(CCO)CCO` showed an Activity [5] of 1.72%.
`O=C(c1ccc(OCCN2CCCCC2)cc1)c1c(-c2ccc(O)cc2)sc2cc(O)ccc12` [RALOXIFENE] showed a Ki [1] of about 0.24 µM.
For `C/C(=C/CC[C@]1(C)[C@@H]2C[C@@H]3[C@H](C2)[C@@]31C)CNNC(=O)c1ccccc1`, the Activity [5] was 26.9%.
For `C=C1[C@@H]2CC[C@@H](C2)[C@@]1(C)CC/C=C(/C)CO`, the Ki [1] was 8.19 µM, the Activity [3] was “inactive” and the Activity [4] was under 16%. For the same compound, the Activity ([5]; filed as agonist) was 55.8%, the Activity [6] was “inactive” and the Activity [8] was “Active”.
